Reference: paper PMC9495854, “Novel Phenothiazine/Donepezil-like Hybrids Endowed with Antioxidant Activity for a Multi-Target Approach to the Therapy of Alzheimer’s Disease” (Antioxidants, 2022)

Experiments:
[1] = target: T1, Aβ1-40 aggregation (Homo sapiens, UniProt P05067); assay: Inhibition of Aβ40 aggregation, ThT fluorescence; format: biochemical; conditions: inhibitor 10 µM, Aβ40 30 µM, PBS pH 7.4, 2% HFIP, 2 h 25 °C; mean ± SEM
T1 construct: purchased EZBiolab
Description: ThT fluorescence in the presence of Aβ was measured for each compound according a previously described procedure. The samples were co-incubated and mixed in 96-well black, non-binding microplates (Greiner Bio-One GmbH, Frickenhausen, Germany), incubating Aβ40 (EZBiolab, Carmel, IN, USA) at a final concentration of 30 µM with each inhibitors at a final concentration of 10 µM in PBS (pH 7.4) containing 2% 1,1,1,3,3,3-hexafluoro-2-propanol (HFIP). After 2 h at 25 °C, a 25 µM ThT solution was added and fluorescence was determined using the multi-plate reader Tecan Infinite M1000 Pro (Tecan, Cernusco S.N., Italy). The results are reported as mean of three independent experiments ± SEM [13].

[2] = DPPH radical scavenging assay; conditions: DPPH 100 µM in methanol, 30 min
Description: A previously reported method (Blois) with some modifications (Mishra, Ojha, & Chaudhury, 2012) was used to carry out the DPPH assay in 96-well microtiter plates. Each tested compound was dissolved in methanol, after which a freshly prepared solution of DPPH in methanol (100 µM final concentration) was added. Following vigorous stirring, each mixture was left in the dark for 30 min at room temperature, after which absorbance values for each well were read at 520 nm using a spectrophotometric plate reader (VICTOR^3 V multilabel plate reader, PerkinElmer). Antioxidant activity was determined as RSA% (radical scavenging activity). The value was calculated using following equation: RSA% = 100 × [(Ao − Ai)/Ao], where Ao and Ai represent DPPH absorbance in absence or in presence of antioxidant, respectively. Antiradical curves for calculating the EC50 values were obtained by testing each compound at several concentrations. Values of all parameters are expressed as mean ± SEM of at least three independent measurements in triplicate.

[3] = target: T2, FAAH Human recombinant (Homo sapiens, UniProt O00519); assay: FAAH inhibition, fluorometric assay; format: biochemical; conditions: mean ± SEM; read-out: hFAAH (IC50)
T2 construct: purchased Cayman Chemical
T2 sequence (O00519 1-579): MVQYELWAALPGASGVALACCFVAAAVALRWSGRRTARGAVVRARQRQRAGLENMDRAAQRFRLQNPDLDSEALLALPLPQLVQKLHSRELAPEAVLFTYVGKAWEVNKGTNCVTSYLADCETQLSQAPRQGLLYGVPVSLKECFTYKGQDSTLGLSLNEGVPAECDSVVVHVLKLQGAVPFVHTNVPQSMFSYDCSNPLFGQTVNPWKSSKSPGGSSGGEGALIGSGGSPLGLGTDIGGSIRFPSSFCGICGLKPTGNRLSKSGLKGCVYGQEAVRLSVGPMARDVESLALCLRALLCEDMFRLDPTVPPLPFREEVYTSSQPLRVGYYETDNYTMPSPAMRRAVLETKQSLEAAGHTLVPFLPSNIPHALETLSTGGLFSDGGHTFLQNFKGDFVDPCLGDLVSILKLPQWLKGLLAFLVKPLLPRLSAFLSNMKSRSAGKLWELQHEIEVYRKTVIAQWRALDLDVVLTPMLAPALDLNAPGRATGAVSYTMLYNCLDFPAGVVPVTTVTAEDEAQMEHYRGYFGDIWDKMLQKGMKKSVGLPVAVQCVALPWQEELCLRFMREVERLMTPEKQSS
Description: The fatty acid amide hydrolase inhibition was measured for the final compounds using 96-well black flat-bottom microtiter NBS plates (COSTAR flat black). The total volume was 150 µL: the single hybrid was pre-incubated at different concentrations with the enzyme (FAAH Human recombinant, Cayman Chemical, Ann Arbor, MI, USA) in the specific fluorometric assay buffer (tris-HCl 125 mM, Na2EDTA · 2H2O 1 mM, pH = 9.0) for ten minutes at RT, using an orbital shaker. A 50 μL solution of the substrate (7-amino-4-methyl-2H-1-benzopyran-2-one-5Z,8Z,11Z,14Z-eicosatetraen-amide, at a final concentration of 5 µM) was then added. The plates were then incubated for 1 h at 37 °C in a Tecan Infinite M1000 Pro (Tecan, Cernusco S.N., Italy), reading fluorescence values from each well every 30s (λex = 340 nm, λem = 450 nm). The inhibitor activity was expressed as relative fluorescence units (RFU), using the values obtained from control wells lacking the inhibitor and blank wells lacking both inhibitor and enzyme to calculate percent inhibition values for each well. IC50 values are expressed as mean ± SEM of at least two independent measurements performed in triplicate.

[4] = system: SH-SY5Y cells; assay: DCFH-DA cell-based antioxidant assay (H2O2-induced oxidation), SH-SY5Y; conditions: Homo sapiens, SHSY-5Y, 1 h compound, 100 μM H2O2, read-out: DCFDH-DA IC50 ± SEM SHSY-5Y
Description: HepG2 cells were cultured in Eagle’s Minimum Essential Medium (MEM, Euroclone S.p.A., Pero, MI, Italy), supplemented with 10% Fetal Bovine Serum (FBS, Euroclone S.p.A., Pero, MI, Italy), 1% L-glutamine (Euroclone S.p.A., Pero, MI, Italy), 100 U/mL penicillin/streptomycin (Euroclone S.p.A., Pero, MI, Italy), 1% Non-Essential Amino Acids (NEAA, Euroclone S.p.A., Pero, MI, Italy). SH-SY5Y cells were grown in a 1:1 mixture of Dulbecco’s modified Eagle’s medium (DMEM)—high glucose (Euroclone S.p.A., Pero, MI, Italy) and Ham’s F12 Medium (Euroclone S.p.A., Pero, MI, Italy) supplemented with 10% FBS, 1% L-glutamine and 100 U/mL penicillin/streptomycin. For cell assays, cells were trypsinized using Trypsin-EDTA 1X in PBS (Euroclone S.p.A., Pero, MI, Italy).
According to a slightly modified procedure already reported in the literature, the generation of ROS was determined using an oxidation-sensitive fluorescent probe, 2′,7′-dichlorodihydrofluorescein diacetate (DCFH-DA, D6665; Sigma-Aldrich, St. Louis, MO, USA). Briefly, viable cells were seeded in a black 96-well cell culture plate (Costar, Sigma-Aldrich, St. Louis, MO, USA) and after 24 h were incubated with different concentrations (0.1–100 µM) of each compound for 1 h at 37 °C in 5% CO2. […] After washing using PBS, 100 μM H2O2 in medium without serum was added to each well and the cells were incubated for an additional 30 min. The formation of fluorescent dichlorofluorescein (DCF) due to oxidation of DCFH in the presence of ROS, was read at 530 nm using a microplate reader Tecan Infinite M1000 Pro (Tecan, Cernusco S.N., Italy) and DMSO medium was used for control cells. The results are expressed as mean ± SEM of at least three independent measurements in triplicate.

T1 sequence (P05067 672-711 limits assumed): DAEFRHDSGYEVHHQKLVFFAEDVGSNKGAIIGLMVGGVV

COc1cc2c(cc1OC)C(=O)C(CC1CCN(Cc3ccccc3)CC1)C2 (centres unmarked) [Donepezil]
Aβ1-40 Aggregation (I% at 10 µM) [1]: 14% ± 7

O=C(O)c1cc(O)c(O)c(O)c1 [Gallic acid, reference compound]
EC50 (μmol/μmol of DPPH ± SEM) [2]: 0.059 ± 0.003 μmol/μmol of DPPH
EC50 (μmol/μmol of DPPH ± SEM) ([2]; listed as gallic acid): 0.059 μmol/μmol of DPPH

O=C(Oc1ccc([N+](=O)[O-])cc1)N1CCN(Cc2cccc(Oc3ccccc3)c2)CC1 [JZL195, reference compound]
IC50 [3]: 0.019 ± 0.003 µM

O=c1c(O)c(-c2ccc(O)c(O)c2)oc2cc(O)cc(O)c12 [Quercetin, reference compound]
IC50 [4]: 5.61 ± 0.4 µM
